Experimental data published in PMC7044277 (Nature Communications, 2020).
pEC50: −log10 of the molar value. Values joined by “and” are separate entries in the source; they are usually repeats but may differ in a detail not shown here. Identical values can stand only once.

Tests used:
[1] = molecular target: T1, 5HT7A (Homo sapiens, UniProt P34969); assay: β-arrestin2 recruitment (Tango); format: cell-based; settings: Fig_S10q, agonist mode
T1 construct: expressed in transfected cells; host or cells: HTLA cells expressing TEV-fused β-arrestin2
T1 sequence (P34969 1-445 isoform P34969-2): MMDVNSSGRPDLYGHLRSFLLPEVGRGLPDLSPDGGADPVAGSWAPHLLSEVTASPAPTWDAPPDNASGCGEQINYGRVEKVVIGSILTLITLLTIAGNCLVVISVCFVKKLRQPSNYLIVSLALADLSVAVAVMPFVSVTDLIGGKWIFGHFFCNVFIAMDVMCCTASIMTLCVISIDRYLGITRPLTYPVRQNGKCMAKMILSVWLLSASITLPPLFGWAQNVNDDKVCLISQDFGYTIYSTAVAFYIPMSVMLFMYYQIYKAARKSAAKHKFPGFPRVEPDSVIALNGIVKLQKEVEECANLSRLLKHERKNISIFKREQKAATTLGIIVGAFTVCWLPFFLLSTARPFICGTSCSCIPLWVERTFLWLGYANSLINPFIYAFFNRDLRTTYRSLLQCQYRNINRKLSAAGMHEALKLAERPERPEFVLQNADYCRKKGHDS

[2] = test system: serotonin receptor (subtype not given; reference agonist serotonin); assay: β-arrestin2 recruitment (Tango), agonist activity, source data Fig_S10l; format: cell-based, human; settings: drug alone
[3] = test system: serotonin receptor of Fig_S10h (subtype not given); assay: β-arrestin2 recruitment (Tango), agonist activity, source data Fig_S10h; format: cell-based, human; settings: drug alone
[4] = molecular target: DRD2 F1103.28A (Homo sapiens, UniProt P14416, F110A); assay: β-arrestin2 recruitment (Tango), mutant; format: cell-based; parameters: expressed in transfected cells; host or cells: HEK293T (ATCC CRL-11268)
DRD2 F1103.28A, sequence (P14416 whole entry F110A): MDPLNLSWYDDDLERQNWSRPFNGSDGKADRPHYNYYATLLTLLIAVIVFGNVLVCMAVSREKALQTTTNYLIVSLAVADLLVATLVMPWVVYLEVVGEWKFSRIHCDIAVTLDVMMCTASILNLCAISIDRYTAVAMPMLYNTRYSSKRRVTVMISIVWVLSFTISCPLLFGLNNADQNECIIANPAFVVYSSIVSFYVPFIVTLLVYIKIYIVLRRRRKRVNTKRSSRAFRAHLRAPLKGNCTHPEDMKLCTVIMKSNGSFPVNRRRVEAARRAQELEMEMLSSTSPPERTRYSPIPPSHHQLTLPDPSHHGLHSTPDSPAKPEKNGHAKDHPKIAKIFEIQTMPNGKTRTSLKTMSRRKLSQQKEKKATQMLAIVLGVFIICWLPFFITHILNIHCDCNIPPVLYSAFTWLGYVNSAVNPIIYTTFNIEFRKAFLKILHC

Question: Which results are given for `CCOc1cccc2cc([C@@H](C)NCC3(O)CCCCC3)oc12` [O4RE6]?
Answer: β-arrestin2 recruitment response, replicate points of concentration-response curve ([1]; Log[Drug] -9.52): -17.7926 and -13.0806 and -8.59 and 76.7429 and -5.732 and -9.941 and -9.587 and 8.198 and -49.3687 and 45.8761; β-arrestin2 recruitment response, replicate points of concentration-response curve ([1]; Log[Drug] -10): 8.776 and -5.649 and -4.779 and -6.75 and 22.3693 and -13.4231 and 66.8562 and 10.9818 and 67.3785 and -0.5782 and 14.0649 and -7.044; β-arrestin2 recruitment response, replicate points of concentration-response curve ([1]; Log[Drug] -10.52): 3.024 and -18.69 and -0.8855 and -5.258 and -47.1876 and -14.9154 and -10.2215 and 7.524 and 59.795 and 14.1475 and 8.932 and -11.705; β-arrestin2 recruitment response, replicate points of concentration-response curve ([1]; Log[Drug] -11): 2.617 and -4.127 and -1.973 and 44.555 and 24.1984 and -23.678 and 55.762 and 41.0711 and -15.762 and -13.3333 and -38.2183 and -14.0059; β-arrestin2 recruitment response, replicate points of concentration-response curve ([1]; Log[Drug] -11.52): 10.0328 and 5.163 and -15.1797 and -41.8076 and 36.1292 and 53.417 and 13.0909 and -3.233 and 13.8777 and 47.469 and -14.7611 and -41.4631; β-arrestin2 recruitment response, replicate points of concentration-response curve ([1]; Log[Drug] -12): -10.6692 and 6.787 and -7.578 and 7.025 and -23.6244 and 50.44 and -4.476 and 12.3769 and -7.901 and 14.5015 and 35.0914 and -7.516; response, Fig_S10l, replicate values ([2]; Log[Drug] -6.52): -3.85; response, Fig_S10l, replicate values ([2]; Log[Drug] -7): -18.1455 and -1.053 and 5.44 and -6.097 and -0.7764 and -1.627 and 21.5386 and -8.446 and -23.0116; response, Fig_S10l, replicate values ([2]; Log[Drug] -7.52): 10.4314 and -7.0535 and -12.5511 and -5.4086 and -2.507 and -5.8801 and -14.9973 and 5.012 and -22.748; response, Fig_S10l, replicate values ([2]; Log[Drug] -8): -3.494 and -0.9897 and -1.101 and -6.133 and 9.37 and -6.103 and -6.764 and -19.0522 and -18.9699; response, Fig_S10l, replicate values ([2]; Log[Drug] -8.52): -14.6079 and -9.137 and 0.1161 and -2.858 and 0.4788 and -6.718 and 5.642 and 9.781 and -19.7014; response, Fig_S10l, replicate values ([2]; Log[Drug] -9): -7.429 and -0.8033 and 2.514 and -1.371 and -2.511 and 6.172 and -12.5406 and 13.3677 and 9.079; response, Fig_S10l, replicate values ([2]; Log[Drug] -9.52): -7.024 and -4.6241 and 4.382 and 5.183 and -6.777 and -3.91 and -13.0464 and 1.094 and -1.351; response, Fig_S10l, replicate values ([2]; Log[Drug] -10): -1.517 and -3.218 and -6.7099 and 1.544 and 10.647 and -1.892 and 3.1372 and 12.1979 and 15.1176; response, Fig_S10l, replicate values ([2]; Log[Drug] -10.52): 7.131 and -7.271 and -11.3727 and 2.195 and -7.95 and -8.5307 and 3.862 and 0.6607 and 18.5102; response, Fig_S10l, replicate values ([2]; Log[Drug] -11): 7.402 and 9.101 and -6.117 and -2.283 and 7.1162 and 16.1339 and -5.988 and 21.1185 and -1.691; response, Fig_S10l, replicate values ([2]; Log[Drug] -11.52): 20.0426 and 4.341 and -34.8779 and 9.958 and -2.256 and -5.643 and 0.02142 and 3.842 and -14.699; response, Fig_S10l, replicate values ([2]; Log[Drug] -12): 1.452 and 8.392 and -9.8386 and -3.912 and 6.115 and -2.202 and -0.8107 and 10.4431 and -9.6291; response, single replicates of the concentration-response curve ([3]; Log[Drug] -6.52): 15.4121; response, single replicates of the concentration-response curve ([3]; Log[Drug] -7): -9.449 and 43.8621 and 11.6211 and 7.472 and -0.3671 and 7.014 and 9.027 and 5.062 and -2.318; response, single replicates of the concentration-response curve ([3]; Log[Drug] -7.52): 25.9192 and 27.8404 and -0.5503 and -21.2455 and 4.046 and 14.5317 and -8.748 and -4.947 and 16.7319; response, single replicates of the concentration-response curve ([3]; Log[Drug] -8): 2.165 and -8.081 and -1.811 and 5.963 and -1.683 and -1.147 and 3.049 and 7.499 and 13.7356; response, single replicates of the concentration-response curve ([3]; Log[Drug] -8.52): -5.579 and -1.044 and 8.071 and 25.4179 and -14.3504 and -12.3048 and 9.427 and 1.454 and -6.523; response, single replicates of the concentration-response curve ([3]; Log[Drug] -9): 17.8788 and 11.459 and -7.1 and 19.8102 and 1.922 and -5.946 and -1.184 and 8.604 and 6.934; response, single replicates of the concentration-response curve ([3]; Log[Drug] -9.52): -10.7926 and -6.0806 and -1.59 and 6.349 and 24.5524 and -6.94 and -0.1308 and 12.3434 and 15.3584; response, single replicates of the concentration-response curve ([3]; Log[Drug] -10): 15.7757 and 1.351 and 2.221 and 21.6342 and 13.8951 and -8.936 and 0.1938 and 1.6143 and 8.83; response, single replicates of the concentration-response curve ([3]; Log[Drug] -10.52): 10.0241 and -11.69 and 6.115 and -3.242 and -2.048 and 6.485 and 2.339 and 5.815 and 3.938; response, single replicates of the concentration-response curve ([3]; Log[Drug] -11): 9.617 and 2.873 and 5.027 and 13.6018 and -3.471 and 16.985 and 36.4073 and 2.626 and 1.374; response, single replicates of the concentration-response curve ([3]; Log[Drug] -11.52): 17.0328 and 12.1627 and -8.18 and -20.709 and -16.6678 and 9.0957 and -0.3236 and 13.7874 and 20.984; response, single replicates of the concentration-response curve ([3]; Log[Drug] -12): -3.669 and 13.7874 and -0.578 and 18.9662 and 35.9393 and -1.197 and 0.5748 and 17.3951 and 3.035; pEC50 [4]: < 5.00
